Measurements published in publication PMC5414857 (Toxicological Sciences, 2017).

Molecular target: bile salt export pump (BSEP) (Homo sapiens, UniProt O95342)
Format: biochemical

Sequence of bile salt export pump (BSEP) (O95342 whole entry): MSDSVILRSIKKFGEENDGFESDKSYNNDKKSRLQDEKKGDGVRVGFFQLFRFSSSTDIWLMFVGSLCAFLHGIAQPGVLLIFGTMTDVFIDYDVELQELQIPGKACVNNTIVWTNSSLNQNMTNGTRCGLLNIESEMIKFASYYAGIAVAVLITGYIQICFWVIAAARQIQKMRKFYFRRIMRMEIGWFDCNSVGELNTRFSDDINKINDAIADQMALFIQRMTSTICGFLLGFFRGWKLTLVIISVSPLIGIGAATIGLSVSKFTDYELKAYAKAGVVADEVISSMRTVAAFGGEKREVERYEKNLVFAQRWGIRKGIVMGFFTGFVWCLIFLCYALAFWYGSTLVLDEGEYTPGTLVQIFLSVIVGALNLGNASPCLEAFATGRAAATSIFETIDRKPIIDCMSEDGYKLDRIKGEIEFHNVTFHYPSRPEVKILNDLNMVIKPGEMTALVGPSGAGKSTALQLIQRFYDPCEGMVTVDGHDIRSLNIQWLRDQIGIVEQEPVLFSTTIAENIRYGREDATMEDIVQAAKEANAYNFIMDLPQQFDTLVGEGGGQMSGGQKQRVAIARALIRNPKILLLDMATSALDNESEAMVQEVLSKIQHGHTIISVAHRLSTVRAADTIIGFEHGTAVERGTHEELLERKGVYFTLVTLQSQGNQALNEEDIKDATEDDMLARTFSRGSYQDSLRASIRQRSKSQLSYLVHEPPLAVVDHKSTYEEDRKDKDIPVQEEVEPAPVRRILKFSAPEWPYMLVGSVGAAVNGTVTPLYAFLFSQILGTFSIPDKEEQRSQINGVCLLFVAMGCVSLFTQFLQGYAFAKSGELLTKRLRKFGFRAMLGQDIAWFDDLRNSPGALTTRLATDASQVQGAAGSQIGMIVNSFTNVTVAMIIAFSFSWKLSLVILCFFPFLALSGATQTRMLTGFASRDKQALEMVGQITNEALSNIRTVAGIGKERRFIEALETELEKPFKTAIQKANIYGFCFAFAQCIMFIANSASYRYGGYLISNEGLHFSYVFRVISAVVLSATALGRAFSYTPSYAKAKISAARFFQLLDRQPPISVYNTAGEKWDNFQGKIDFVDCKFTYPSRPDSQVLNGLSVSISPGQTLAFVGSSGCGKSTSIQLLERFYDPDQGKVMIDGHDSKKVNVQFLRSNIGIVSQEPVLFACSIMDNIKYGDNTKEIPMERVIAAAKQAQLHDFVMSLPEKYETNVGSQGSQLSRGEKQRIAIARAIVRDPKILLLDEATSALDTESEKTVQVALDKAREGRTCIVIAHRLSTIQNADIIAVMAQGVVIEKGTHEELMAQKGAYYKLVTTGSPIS

`Cc1cc(OCCCS(C)(=O)=O)cc(C)c1-c1cccc(COc2ccc3c(c2)OC[C@H]3CC(=O)O)c1` [TAK-875] was tested, and the IC50 was 14.3 µM.
